Experimental data as given in patent US9127164B2, “Fluorescent dyes and uses thereof” (ALMAC SCIENCES (SCOTLAND) LIMITED, priority 2005, dated 2015).
Where two headings read alike, the source gives them in different places. Values belong to the compound of their own block, whether it stands above or below them. Peptide text beside a SMILES is read from it. * marks the point of attachment. Propanoyl(3-(9AA-2-yl)) = Nc1c2ccccc2nc2ccc(CCC(=O)*)cc12

Key:
[1] = Fluorescence lifetime by time-correlated single photon counting (Edinburgh Instruments FLS920); assay type: physicochemical; settings: for Lifetime* (ns): Table 3, molecules synthesised; for Fluorescence Lifetime (nsecs) in PBS pH 7.4: excited at 405 nm, detection at 450 nm, 10 mM phosphate buffered saline pH 7.4; for Lifetime (ns): Table 2, 9-aminoacridine derivatives
Procedure: Fluorescence lifetimes were determined by time-correlated single photon counting using an Edinburgh Instruments FLS920 fluorimeter. Samples were excited at 405 nm with detection at 450 nm. Measurements were recorded in 10 mM phosphate buffered saline pH 7.4.
Excitation wavelength 405 nm and emission wavelength 450 nm.

[2] = Fluorescence emission spectra / intensity; assay type: physicochemical; settings: for fluorescence emission intensity compared with N-methyl acridone: excitation at 405 nm, 140 mM NaCl, 10 mM phosphate buffer pH 7.4; for Relative intensity Ex405 nm, Emmax: relative to 9-aminoacridine = 1
Procedure: Fluorescence emission spectra of 10-methyl-9(10H)-thioacridone (N-methyl thioacridone) and 10-methyl-9(10H)-acridone (N-methylacridone) in 140 mM NaCl, 10 mM phosphate buffer pH 7.4 upon excitation at 405 nm, were obtained. The thioacridone concentration is 500 nM and the 10-methyl-9(10H)-acridone (N-methylacridone) concentration is 100 nM.
Fluorescence emission spectra of 9-aminoacridine and 10-methyl-9(10H)-acridone (N-methylacridone) upon excitation at 405 nm. Both compounds at a concentration of 100 nM in 140 mM NaCl, 10 mM phosphate buffer pH 7.4, were obtained.
Fluorescence emission spectrum of (Acridin-9-ylamino)acetic acid ethyl ester at 100 nM concentration in 140 mM NaCl, 10 mM phosphate buffer pH 7.4 upon excitation at 405 nm is shown in FIG. 4.

[3] = Fluorescence emission spectra / intensity; assay type: physicochemical
[4] = target: T1, Caspase-3 recombinant enzyme (Homo sapiens, UniProt P42574); assay: Fluorescence lifetime based Caspase-3 cleavage assay of dye-labelled DEVDSW peptide; assay type: biochemical; settings: 1 uM substrate
T1 construct: purchased Calbiochem
T1 sequence (P42574 29-175 limits assumed): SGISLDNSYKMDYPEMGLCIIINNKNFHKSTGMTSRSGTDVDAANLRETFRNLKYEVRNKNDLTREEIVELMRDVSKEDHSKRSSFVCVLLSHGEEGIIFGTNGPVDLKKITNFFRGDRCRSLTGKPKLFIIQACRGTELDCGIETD
T1 sequence (P42574 176-277 limits assumed): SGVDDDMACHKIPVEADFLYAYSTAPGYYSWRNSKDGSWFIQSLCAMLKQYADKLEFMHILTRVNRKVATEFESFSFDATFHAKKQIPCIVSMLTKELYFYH
Procedure: The 9-aminoacridine labelled peptide substrate, AA-DEVDSW (1 uM concentration in […] buffer pH 7.4 containing 10% sucrose, 0.1% CHAPS, 100 mM NaCl, 1 mM EDTA, 10 mM DTT) was employed in a biochemical assay using Caspase-3 recombinant enzyme (50 U and 20 U) at 30° C. The assay mixture was analysed at time intervals using an Edinburgh Instruments Fluorescence Lifetime Plate Reader. […] The data could also be easily viewed as a change in percentage cleavage over time, confirming that the reaction was progressing to completion after 90 minutes when 50 units of caspase 3 was employed (see FIGS. 8 and 9).
• Buffer: 20 mM HEPES buffer pH7.4 containing 10% sucrose, 0.1% CHAPS, 100 mM NaCl, 1 mM EDTA, 10 mM DTT • Substrate solution: 10 uM 3-(9-aminoacridin-2-yl) propionyl-DEVDSW in buffer. • Product solution: 10 uM 3-(9-aminoacridin-2-yl) propionyl-DEVDSK in buffer. • Enzyme solution: 10 U/ul in buffer. Procedure
To the well of a 96-well plate was added buffer (88 ul), substrate solution (10 ul, 1 uM final conc.) and enzyme (2 ul for 20 U). Reactions were performed in triplicate and also at varying enzyme concentrations. The reaction progress was followed at time intervals using an Edinburgh Instruments Fluorescence Lifetime Plate Reader against wells containing product and substrate standards.
The partially quenched 9-aminoacridine-labelled peptide substrate, 3-(9-aminoacridin-2-yl) propionyl-DEVDSW, was employed in a biochemical enzymatic cleavage assay using recombinant Caspase-3 enzyme purchased from Calbiochem. The assay was carried out using 1 uM substrate concentration in 20 mM HEPES buffer pH 7.4 containing 10% sucrose, 0.1% CHAPS, 100 mM NaCl, 1 mM EDTA, 10 mM DTT, in the presence of either 20 or 50 units of enzyme (100 ul final volume). The assay mixture was analysed at time intervals using an Edinburgh Instruments Fluorescence Lifetime Plate Reader. […] The deviation in fluorescence lifetime from that stated above was a consequence of the buffer system.

[5] = 20 mM HEPES buffer pH 7.4, 20 or 50 units of enzyme

SMILES: CC(C)(C)OC(=O)/C=C/c1ccc2nc3ccccc3c(N)c2c1 [3-(9-Amino-acridin-2-yl)-acrylic acid tert-butyl ester]
Lifetime* (ns) [1]: 11.2 ns

SMILES: CC(C)[C@H](NC(=O)[C@H](CCC(=O)O)NC(=O)[C@H](CC(=O)O)NC(=O)CCc1ccc2nc3ccccc3c(N)c2c1)C(=O)N[C@@H](CC(=O)O)C(=O)N[C@@H](CO)C(=O)N[C@@H](CCCCN)C(=O)O [3-(9-Amino-acridin-2-yl)-propionyl-DEVDSK] ({Propanoyl(3-(9AA-2-yl))}-DEVDSK-OH)
fluorescence properties (emission spectrum, intensity, lifetime) compared with 9-aminoacridine [2]: comparable emission spectrum and fluorescence intensity to that of 9-aminoacridine
fluorescence lifetime [1]: 17.7 ns
Lifetime* (ns) [1]: 17.7 ns

SMILES: CC(C)[C@H](NC(=O)[C@H](CCC(=O)O)NC(=O)[C@H](CC(=O)O)NC(=O)CCc1ccc2nc3ccccc3c(N)c2c1)C(=O)N[C@@H](CC(=O)O)C(=O)N[C@@H](CO)C(=O)N[C@@H](Cc1c[nH]c2ccccc12)C(=O)O [3-(9-Amino-acridin-2-yl)-propionyl-DEVDSW] ({Propanoyl(3-(9AA-2-yl))}-DEVDSW-OH)
fluorescence intensity quenched by tryptophan ([3]; tryptophan (W) containing labelled peptide versus lysine (K) containing labelled peptide): 75%
fluorescence lifetime of reaction mixture after cleavage [4, 5]: 15.5 ns
fluorescence lifetime of reaction mixture at start of reaction [4, 5]: 8.5 ns
time at which cleavage reaction was progressing to completion ([4]; 50 units of caspase 3 enzyme, 20 mM HEPES buffer pH 7.4): 60 min
fluorescence lifetime [1]: 7.6 ns
Lifetime* (ns) [1]: 7.7 ns

SMILES: CC(C)(C)OC(=O)CCc1ccc2nc3ccccc3c(N)c2c1 [3-(9-amino-acridin-2-yl)-propionic acid tert-butyl ester]
fluorescence properties (emission spectrum, intensity, lifetime) compared with 9-aminoacridine [2]: comparable to the parent 9-aminoacridine
Lifetime* (ns) [1]: 16.7 ns

SMILES: Nc1c2ccccc2nc2ccc(CCC(=O)O)cc12 [3-(9-amino-acridin-2-yl)-propionic acid]
fluorescence properties (emission spectrum, intensity, lifetime) compared with 9-aminoacridine [2]: comparable to the parent 9-aminoacridine
Lifetime* (ns) [1]: 17.0 ns

SMILES: CCOC(=O)CNc1c2ccccc2nc2ccccc12 [(Acridin-9-ylamino)acetic acid ethyl ester]
fluorescence lifetime ([1]; Excitation wavelength 405 nm and emission wavelength 450 nm): 14.9 ns

SMILES: Cn1c2ccccc2c(=O)c2ccccc21 [N-methyl acridone, 10-methyl-9(10H)-acridone, reference compound]
Fluorescence Lifetime (nsecs) in PBS pH 7.4 [1]: 13.9 nsecs

Results, then the compound that gave them:

fluorescence emission intensity compared with N-methyl acridone [2]: considerably less fluorescent
SMILES: Cn1c2ccccc2c(=S)c2ccccc21 [N-methyl thioacridone, 10-methyl-9(10H)-thioacridone, reference compound]

Relative intensity Ex405 nm, Emmax [2]: 1
fluorescence emission intensity compared with N-methyl acridone [2]: considerably brighter
Lifetime (ns) [1]: 15 ns
Fluorescence Lifetime (nsecs) in PBS pH 7.4 [1]: 16.0 nsecs
SMILES: Nc1c2ccccc2nc2ccccc12 [Number 1, 9-aminoacridine, reference compound]

fluorescence (in words) ([3]; free amino dye, no acetylation): non-fluorescent
Relative intensity Ex405 nm, Emmax [2]: Not fluorescent
Lifetime (ns) [1]: Not fluorescent
SMILES: Nc1ccc2nc3ccccc3c(N)c2c1 [Number 6]

Relative intensity Ex405 nm, Emmax [2]: Not fluorescent
Lifetime (ns) [1]: multiexponential
SMILES: CC(=O)Nc1ccc2nc3ccc(N)cc3c(N)c2c1 [Number 7]
